In patent US10123993B2, “Cyclic ureas as inhibitors of rock” (BRISTOL-MYERS SQUIBB COMPANY, priority 2015, dated 2018) one finds IC50 data, which are given here for 37 compounds.

The structures appear in SMILES notation.

For this assay, the target named is ROCK2 (Homo sapiens, UniProt O75116). Briefly: ROCK2 kinase inhibition assay (Caliper LABCHIP, FITC peptide substrate). Format: biochemical. The settings on record: 5 μM ATP, 1.5 μM peptide substrate; value ranges. The gist of the method: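 Dose-response curves gave IC50 from inhibition of peptide phosphorylation, measured by LabChip separation after EDTA stop. Reactions used 1.5 μM FITC-labelled peptide, 5 μM ATP, 20 mM HEPES pH 7.5 with MgCl2, Brij-35, DTT, and under 2% DMSO.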
Chain of ROCK2 (O75116 whole entry, species assumed): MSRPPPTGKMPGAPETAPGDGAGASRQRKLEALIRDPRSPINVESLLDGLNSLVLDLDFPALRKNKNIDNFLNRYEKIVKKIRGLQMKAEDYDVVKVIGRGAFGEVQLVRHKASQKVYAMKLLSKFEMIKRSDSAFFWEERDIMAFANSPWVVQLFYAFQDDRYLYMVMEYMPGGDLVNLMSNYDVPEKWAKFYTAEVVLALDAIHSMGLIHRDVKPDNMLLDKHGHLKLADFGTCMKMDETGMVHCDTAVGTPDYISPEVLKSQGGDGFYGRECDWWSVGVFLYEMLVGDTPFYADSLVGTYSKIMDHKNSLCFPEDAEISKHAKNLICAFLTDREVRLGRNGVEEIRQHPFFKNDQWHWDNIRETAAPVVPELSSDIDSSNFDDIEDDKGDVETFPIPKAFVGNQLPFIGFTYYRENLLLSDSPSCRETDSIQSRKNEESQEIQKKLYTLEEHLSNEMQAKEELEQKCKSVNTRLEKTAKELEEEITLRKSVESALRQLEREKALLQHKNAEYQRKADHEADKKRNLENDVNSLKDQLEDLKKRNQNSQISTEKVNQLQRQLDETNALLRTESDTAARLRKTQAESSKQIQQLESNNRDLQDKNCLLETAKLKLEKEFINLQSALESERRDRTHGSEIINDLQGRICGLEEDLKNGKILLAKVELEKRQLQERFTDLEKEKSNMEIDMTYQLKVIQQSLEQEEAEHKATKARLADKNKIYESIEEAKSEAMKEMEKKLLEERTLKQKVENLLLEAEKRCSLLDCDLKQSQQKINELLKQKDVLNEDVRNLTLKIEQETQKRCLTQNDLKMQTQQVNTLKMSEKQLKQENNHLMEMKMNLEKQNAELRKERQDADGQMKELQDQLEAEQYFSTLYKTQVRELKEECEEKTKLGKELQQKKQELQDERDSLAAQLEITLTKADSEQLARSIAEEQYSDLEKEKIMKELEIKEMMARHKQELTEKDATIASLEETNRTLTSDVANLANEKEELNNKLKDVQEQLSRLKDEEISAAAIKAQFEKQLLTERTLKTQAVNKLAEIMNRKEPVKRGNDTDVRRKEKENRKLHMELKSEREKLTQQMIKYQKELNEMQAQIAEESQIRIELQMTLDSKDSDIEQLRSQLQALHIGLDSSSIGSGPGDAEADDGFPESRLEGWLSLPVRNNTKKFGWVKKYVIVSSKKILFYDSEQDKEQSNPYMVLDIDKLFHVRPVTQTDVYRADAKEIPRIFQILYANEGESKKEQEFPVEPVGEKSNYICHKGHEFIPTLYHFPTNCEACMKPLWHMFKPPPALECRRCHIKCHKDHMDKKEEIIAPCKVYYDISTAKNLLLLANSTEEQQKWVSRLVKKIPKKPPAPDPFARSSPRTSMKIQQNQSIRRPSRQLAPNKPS
For orientation: IC50 means the concentration at which inhibition is half-maximal. `COc1cccc(CN2CCN(c3ccc(-c4cn[nH]c4)c(F)c3)C2=O)c1` [Example 430, 1-(3-fluoro-4-(1H-pyrazol-4-yl)phenyl)-3-(3-methoxybenzyl)imidazolidin-2-one]: the IC50 was 2.1 to 20 nM. The figure for `COc1cccc(F)c1CN1CCN(c2ccc(-c3cn[nH]c3)c(F)c2)C1=O` [Example 431, 1-(3-fluoro-4-(1H-pyrazol-4-yl)phenyl)-3-(2-fluoro-6-methoxybenzyl)imidazolidin-2-one] is 20.1 to 200 nM.

As for `COc1ccc(CN2CCN(c3ccc(-c4cn[nH]c4)c(F)c3)C2=O)cc1F` [Example 432, 1-(3-fluoro-4-(1H-pyrazol-4-yl)phenyl)-3-(3-fluoro-4-methoxybenzyl)imidazolidin-2-one], the IC50 was 20.1 to 200 nM.

In turn, `COc1cccc(CN2CCN(c3ccc(-c4cn[nH]c4)c(F)c3)C2=O)c1F` [Example 433, 1-(2-fluoro-3-methoxybenzyl)-3-(3-fluoro-4-(1H-pyrazol-4-yl)phenyl)imidazolidin-2-one] gave an IC50 of 20.1 to 200 nM.

`COc1cc(CN2CCN(c3ccc(-c4cn[nH]c4)c(F)c3)C2=O)ccc1F` [Example 434, 1-(4-fluoro-3-methoxybenzyl)-3-(3-fluoro-4-(1H-pyrazol-4-yl)phenyl)imidazolidin-2-one] showed a 50% inhibitory concentration (IC50) of 2.1 to 20 nM.

`COc1cc(F)cc(CN2CCN(c3ccc(-c4cn[nH]c4)nc3)C2=O)c1` [Example 437, 1-(6-(1H-pyrazol-4-yl)pyridin-3-yl)-3-(3-fluoro-5-methoxybenzyl)imidazolidin-2-one] had a half-inhibitory concentration (IC50) of 20.1 to 200 nM.

For `O=C1N(Cc2cccc(OCC3CC3)c2)CCN1c1ccc(-c2cn[nH]c2)cn1` [Example 438, 1-(5-(1H-pyrazol-4-yl)pyridin-2-yl)-3-(3-(cyclopropylmethoxy)benzyl)imidazolidin-2-one], the IC50 lay within 20.1 to 200 nM.

With `COc1cccc(CN2CCN(c3ccc(-c4cn[nH]c4)nc3)C2=O)c1` [Example 439, 1-(6-(1H-pyrazol-4-yl)pyridin-3-yl)-3-(3-methoxybenzyl)imidazolidin-2-one], the IC50 lay within 2.1 to 20 nM. The compound `COc1cc(CN2CCN(c3ccc(-c4cn[nH]c4)nc3)C2=O)ccc1F` [Example 440, 1-(6-(1H-pyrazol-4-yl)pyridin-3-yl)-3-(4-fluoro-3-methoxybenzyl)imidazolidin-2-one] yielded a concentration for half-maximal inhibition (IC50) of 20.1 to 200 nM. `O=C1N(Cc2cccc(OCC3CC3)c2)CCN1c1ccc(-c2cn[nH]c2)nc1` [Example 441, 1-(6-(1H-pyrazol-4-yl)pyridin-3-yl)-3-(3-(cyclopropylmethoxy)benzyl)imidazolidin-2-one] had a half-inhibitory concentration (IC50) of 200 to 2000 nM.

The compound `COc1cccc(C(CO)N2CCN(c3ccc(-c4cn[nH]c4)cn3)C2=O)c1` (stereo not shown) [Example 442, 1-(5-(1H-pyrazol-4-yl)pyridin-2-yl)-3-(2-hydroxy-1-(3-methoxyphenyl)ethyl)imidazolidin-2-one] displayed a concentration for half-maximal inhibition (IC50) of 200 to 2000 nM. Then `CC(C)COc1cccc(CN2CCN(c3ccc(-c4cn[nH]c4)c(F)c3)C2=O)c1` [Example 443, 1-(3-fluoro-4-(1H-pyrazol-4-yl)phenyl)-3-(3-isobutoxybenzyl)imidazolidin-2-one], with 2.1 to 20 nM. In the case of `CC(C)COc1cccc(CN2CCN(c3ccc(-c4cn[nH]c4)cn3)C2=O)c1` [Example 444, 1-(5-(1H-pyrazol-4-yl)pyridin-2-yl)-3-(3-isobutoxybenzyl)imidazolidin-2-one], the IC50 was 20.1 to 200 nM. `COc1cccc(CN2CCN(c3ccc(-c4cn[nH]c4)cn3)C2=O)c1` [Example 446, 1-(5-(1H-pyrazol-4-yl)pyridin-2-yl)-3-(3-methoxybenzyl)imidazolidin-2-one]: the IC50 was in the range of 2.1 to 20 nM.

In turn, `COc1cccc(CN2CCN(c3cc(F)c(-c4cn[nH]c4)cc3F)C2=O)c1` [Example 447, 1-(2,5-difluoro-4-(1H-pyrazol-4-yl)phenyl)-3-(3-methoxybenzyl)imidazolidin-2-one] gave an IC50 of 20.1 to 200 nM.

As to `COc1cc(F)cc(CN2CCN(c3cc(F)c(-c4cn[nH]c4)cc3F)C2=O)c1` [Example 448, 1-(2,5-difluoro-4-(1H-pyrazol-4-yl)phenyl)-3-(3-fluoro-5-methoxybenzyl)imidazolidin-2-one], the half-inhibitory concentration (IC50) is 20.1 to 200 nM. For `COc1cc(CN2CCN(c3cc(F)c(-c4cn[nH]c4)cc3F)C2=O)ccc1F` [Example 449, 1-(2,5-difluoro-4-(1H-pyrazol-4-yl)phenyl)-3-(4-fluoro-3-methobenzyl)imidazolidin-2-one], the 50% inhibitory concentration (IC50) was in the range of 20.1 to 200 nM. In the case of `COc1cc(CN2C(=O)N(c3ccc(-c4cn[nH]c4)cn3)CC2(C)C)ccc1F` [Example 450, 1-(5-(1H-pyrazol-4-yl)pyridin-2-yl)-3-(4-fluoro-3-methoxybenzyl)-4,4-dimethylimidazolidin-2-one], the half-maximal inhibitory concentration (IC50) is 2.1 to 20 nM. `COc1cccc(CN2C(=O)N(c3ccc(-c4cn[nH]c4)cn3)CC2(C)C)c1` [Example 451, 1-(5-(1H-pyrazol-4-yl)pyridin-2-yl)-3-(3-methoxybenzyl)-4,4-dimethylimidazolidin-2-one] yielded an IC50 of less than 2 nM. Consider `CC1(C)CN(c2ccc(-c3cn[nH]c3)cn2)C(=O)N1Cc1cccc(OCC2CC2)c1` [Example 452, 1-(5-(1H-pyrazol-4-yl)pyridin-2-yl)-3-(3-(cyclopropylmethoxy)benzyl)-4,4-dimethylimidazolidin-2-one], for which the IC50 fell in the range of 2.1 to 20 nM.

Consider `CCc1cc(-n2ccn(Cc3cccc(OC)c3)c2=O)ccc1-c1cn[nH]c1` [Example 453, 1-(3-ethyl-4-(1H-pyrazol-4-yl)phenyl)-3-(3-methoxybenzyl)-1H-imidazol-2(3H)-one], for which the half-inhibitory concentration (IC50) was 20.1 to 200 nM.

Consider `CCc1cc(-n2ccn(Cc3cc(F)cc(OC)c3)c2=O)ccc1-c1cn[nH]c1` [Example 454, 1-(3-ethyl-4-(1H-pyrazol-4-yl)phenyl)-3-(3-fluoro-5-methoxybenzyl)-1H-imidazol-2(3H)-one], for which the IC50 was 20.1 to 200 nM. Then `CCc1cc(-n2ccn(Cc3cccc(OCC4CC4)c3)c2=O)ccc1-c1cn[nH]c1` [Example 455, 1-(3-(cyclopropylmethoxy)benzyl)-3-(3-ethyl-4-(1H-pyrazol-4-yl)phenyl)-1H-imidazol-2(3H)-one], with 200 to 2000 nM. `COc1cccc([C@H](C)N2CCN(c3ccc(-c4cn[nH]c4)cc3)C2=O)c1` [Example 456, (S)-1-(4-(1H-pyrazol-4-yl)phenyl)-3-(1-(3-methoxyphenyl)ethyl)imidazolidin-2-one] displayed an IC50 of 20.1 to 200 nM.

With `COc1cc(F)cc(CN2C(=O)N(c3ccc(-c4cn[nH]c4)cn3)CC2(C)C)c1` [Example 458, 1-(5-(1H-pyrazol-4-yl)pyridin-2-yl)-3-(3-fluoro-5-methoxybenzyl)-4,4-dimethylimidazolidin-2-one], the 50% inhibitory concentration (IC50) fell in the range of 2.1 to 20 nM. Compound `COc1cccc(C(CO)N2CCN(c3ccc(-c4cn[nH]c4)c(F)c3)C2=O)c1` (stereo not shown) [Example 463, 1-(3-fluoro-4-(1H-pyrazol-4-yl)phenyl)-3-(2-hydroxy-1-(3-methoxyphenyl)ethyl)imidazolidin-2-one] showed a 50% inhibitory concentration (IC50) of 2.1 to 20 nM.

In turn, `COc1cc(F)cc(CN2CCN(c3cc(C)c(-c4cn[nH]c4)cn3)C2=O)c1` [Example 464, 1-(3-fluoro-5-methoxybenzyl)-3-(4-methyl-5-(1H-pyrazol-4-yl)pyridin-2-yl)imidazolidin-2-one] gave an IC50 of 20.1 to 200 nM. Turning to `COc1cccc(CN2CCN(c3cc(C)c(-c4cn[nH]c4)cn3)C2=O)c1` [Example 465, 1-(3-methoxybenzyl)-3-(4-methyl-5-(1H-pyrazol-4-yl)pyridin-2-yl)imidazolidin-2-one], the concentration for half-maximal inhibition (IC50) lay within 20.1 to 200 nM. In the case of `COc1cccc(CN2CCN(c3ccc(-c4cn[nH]c4)c(OC)n3)C2=O)c1` [Example 466, 1-(6-methoxy-5-(1H-pyrazol-4-yl)pyridin-2-yl)-3-(3-methoxybenzyl)imidazolidin-2-one], the IC50 was less than 2 nM.

Consider `COc1cc(F)cc(CN2CCN(c3ccc(-c4cn[nH]c4)c(OC)n3)C2=O)c1` [Example 467, 1-(3-fluoro-5-methoxybenzyl)-3-(6-methoxy-5-(1H-pyrazol-4-yl)pyridin-2-yl)imidazolidin-2-one], for which the IC50 is less than 2 nM. Then `COc1cccc(CN2CCN(c3ccc(-c4cn[nH]c4)c(C4CC4)c3)C2=O)c1` [Example 468, 1-(3-cyclopropyl-4-(1H-pyrazol-4-yl)phenyl)-3-(3-methoxybenzyl)imidazolidin-2-one], with 20.1 to 200 nM; and `COc1cc(F)cc(CN2CCN(c3ccc(-c4cn[nH]c4)c(C4CC4)c3)C2=O)c1` [Example 469, 1-(3-cyclopropyl-4-(1H-pyrazol-4-yl)phenyl)-3-(3-fluoro-5-methoxybenzyl)imidazolidin-2-one], with 20.1 to 200 nM; and `COc1cc(F)cc(CN2CCN(c3cc(OC)c(-c4cn[nH]c4)cn3)C2=O)c1` [Example 472, 1-(3-fluoro-5-methoxybenzyl)-3-(4-methoxy-5-(1H-pyrazol-4-yl)pyridin-2-yl)imidazolidin-2-one], with 2.1 to 20 nM. Consider `CCOc1cc(N2CCN(Cc3cccc(OC)c3)C2=O)ncc1-c1cn[nH]c1` [Example 473, 1-(4-ethoxy-5-(1H-pyrazol-4-yl)pyridin-2-yl)-3-(3-methoxybenzyl)imidazolidin-2-one], for which the concentration for half-maximal inhibition (IC50) fell in the range of 20.1 to 200 nM. `COc1cccc(CN2C(=O)N(c3ccc(-c4cn[nH]c4)cn3)C[C@@H]2CO)c1` [Example 474, (R)-1-(5-(1H-pyrazol-4-yl)pyridin-2-yl)-4-(hydroxymethyl)-3-(3-methoxybenzyl)imidazolidin-2-one] registered a half-maximal inhibitory concentration (IC50) of 2.1 to 20 nM.

Take `COc1nc(N2CCN(Cc3cccc(OCC4CC4)c3)C2=O)ccc1-c1cn[nH]c1` [Example 475, 1-(3-(cyclopropylmethoxy)benzyl)-3-(6-methoxy-5-(1H-pyrazol-4-yl)pyridin-2-yl)imidazolidin-2-one]: the IC50 is less than 2 nM.

As to `O=C1N(c2ccc(-c3cn[nH]c3)cc2)C[C@@H](CO)N1Cc1cccc(OCC2CC2)c1` [Example 476, (S)-1-(4-(1H-pyrazol-4-yl)phenyl)-3-(3-(cyclopropylmethoxy)benzyl)-4-(hydroxymethyl)imidazolidin-2-one], the IC50 fell in the range of 2.1 to 20 nM.
